Results: patent US12606541B2, “PPARg modulators and methods of use” (Eisai R&D Management Co., Ltd., priority 2020, dated 2026)

Experiments:
His6-TEV-PPARγ-(234-505) = molecular target: T1, His6-TEV-PPARγ-(234-505) (Homo sapiens, UniProt P37231); assay: TR-FRET Assay to Measure Co-R Peptide Recruitment to PPARγ; assay type: biochemical; conditions: Co-R peptide (SMRT-ID2) recruitment; top final concentration 20 μM; read-out: TR-FRET i-Ag; AC50
T1 construct: The His6-TEV-PPARγ-(234-505) protein for assay was expressed and purified; TEV cleavage site (N); made in house
T1 sequence (P37231 234-505): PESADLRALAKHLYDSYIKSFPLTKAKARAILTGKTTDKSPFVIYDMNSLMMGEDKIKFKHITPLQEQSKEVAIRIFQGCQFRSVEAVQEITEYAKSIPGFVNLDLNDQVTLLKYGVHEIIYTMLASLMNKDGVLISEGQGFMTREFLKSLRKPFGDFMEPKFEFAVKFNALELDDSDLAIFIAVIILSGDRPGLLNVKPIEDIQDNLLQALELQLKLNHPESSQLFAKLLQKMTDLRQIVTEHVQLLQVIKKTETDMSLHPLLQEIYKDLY
Outline: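 Corepressor recruitment is measured by adding terbium-labeled anti-His antibody and FITC SMRT-ID2 peptide, at 5 and 200 nM final, after a 20-minute room-temperature protein–compound incubation. After one further hour, signal is converted to percent response between DMSO and 500 nM T0070907 wells.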

UM-UC-9 engineered cells = assay: Cell proliferation / short-term viability assay, CellTiter-Glo 144 h; assay type: cell-based, human; conditions: Homo sapiens, UM-UC-9, 144 h, read-out: CTGlo 144 h UMUC9.5, G150
Outline: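 Viability read by CellTiter-Glo 2.0 luminescence at day 7 versus DMSO-vehicle wells and a T0 plate measured on day 0. Cells: UM-UC-9 engineered assay-ready stocks, 500 cells/well in high-glucose DMEM with 10% FBS, 37° C, 5% CO2.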

AC50 (His6-TEV-PPARγ-(234-505)) [nM]	SMILES	IC50 (UM-UC-9 engineered cells) [nM]
77.4	COc1cc(-c2cc(C(=O)N3CCC(C(=O)NCc4cc(Cl)ccc4F)CC3)n[nH]2)c(Cl)cn1 [Example 154, N-(5-chloro-2-fluorobenzyl)-1-(5-(5-chloro-2-methoxypyridin-4-yl)-1H-pyrazole-3-carbonyl)piperidine-4-carboxamide]	166
130	COc1cc(-c2cc(C(=O)N3CCC(C(=O)NCc4cccc(F)c4)CC3)n[nH]2)c(Cl)cn1 [Example 157, 1-(5-(5-chloro-2-methoxypyridin-4-yl)-1H-pyrazole-3-carbonyl)-N-(3-fluorobenzyl)piperidine-4-carboxamide]	212
941	COc1cc(-c2cc(C(=O)N3CCC(C(=O)N(C)Cc4cccc(Cl)c4)CC3)n[nH]2)c(F)cn1 [Example 161, N-(3-chlorobenzyl)-1-(5-(5-fluoro-2-methoxypyridin-4-yl)-1H-pyrazole-3-carbonyl)-N-methylpiperidine-4-carboxamide]	1950
608	COc1cc(-c2cc(C(=O)N3CCC(C(=O)NCc4ccc(OC(F)(F)F)cc4)CC3)n[nH]2)c(Cl)cn1 [Example 164, 1-(5-(5-chloro-2-methoxypyridin-4-yl)-1H-pyrazole-3-carbonyl)-N-(4-(trifluoromethoxy)benzyl)piperidine-4-carboxamide]	1010
45.7	COc1cc(-c2cc(C(=O)N3CCC(C(=O)NCc4cnc5[nH]ccc5c4)CC3)n[nH]2)c(Cl)cn1 [Example 168, N-((1H-pyrrolo[2,3-b]pyridin-5-yl)methyl)-1-(5-(5-chloro-2-methoxypyridin-4-yl)-1H-pyrazole-3-carbonyl)piperidine-4-carboxamide]	487
344	COc1cc(-c2cc(C(=O)N3CCC(C(=O)NCc4ccc(C(F)(F)F)nc4)CC3)n[nH]2)c(Cl)cn1 [Example 178, 1-(5-(5-chloro-2-methoxypyridin-4-yl)-1H-pyrazole-3-carbonyl)-N-((6-(trifluoro-15-methyl)pyridin-3-yl)methyl)piperidine-4-carboxamide]	1260
144	COc1cc(-c2cc(C(=O)N3CCC(C(=O)NCc4ccc5cn[nH]c5c4)CC3)n[nH]2)c(Cl)cn1 [Example 180, N-((1H-indazol-6-yl)methyl)-1-(5-(5-chloro-2-methoxypyridin-4-yl)-1H-pyrazole-3-carbonyl)piperidine-4-carboxamide]	707
56.2	COc1cc(-c2cc(C(=O)N3CCC(C(=O)NCc4c[nH]c5ccccc45)CC3)n[nH]2)c(Cl)cn1 [Example 181, N-((1H-indol-3-yl)methyl)-1-(5-(5-chloro-2-methoxypyridin-4-yl)-1H-pyrazole-3-carbonyl)piperidine-4-carboxamide]	85.6
422	COc1cc(-c2cc(C(=O)N3CCC(C(=O)NCc4ccc5cnccc5c4)CC3)n[nH]2)c(Cl)cn1 [Example 182, 1-(5-(5-chloro-2-methoxypyridin-4-yl)-1H-pyrazole-3-carbonyl)-N (isoquinolin-6-ylmethyl)piperidine-4-carboxamide]	1600

Further lines, the compound ahead of its results:

SMILES	AC50 (His6-TEV-PPARγ-(234-505)) [nM]	IC50 (UM-UC-9 engineered cells) [nM]
COc1cc(-c2cc(C(=O)N3CCC(C(=O)NCc4cccc(F)c4F)CC3)n[nH]2)c(Cl)cn1 [Example 155, 1-(5-(5-chloro-2-methoxypyridin-4-yl)-1H-pyrazole-3-carbonyl)-N-(2,3-difluorobenzyl)piperidine-4-carboxamide]	103	122
COc1cc(-c2cc(C(=O)N3CCC(C(=O)NCc4cccc(Cl)c4F)CC3)n[nH]2)c(Cl)cn1 [Example 156, N-(3-chloro-2-fluorobenzyl)-1-(5-(5-chloro-2-methoxypyridin-4-yl)-1H-pyrazole-3-carbonyl)piperidine-4-carboxamide]	32.1	106
COc1cc(-c2cc(C(=O)N3CCC(C(=O)NCC4CCC=CO4)CC3)n[nH]2)c(Cl)cn1 (centres unmarked) [Example 158, 1-(5-(5-chloro-2-methoxypyridin-4-yl)-1H-pyrazole-3-carbonyl)-N-((3,4-dihydro-2H-pyran-2-yl)methyl)piperidine-4-carboxamide]	296	544
COc1cc(-c2cc(C(=O)N3CCC(C(=O)NCc4cccc(Cl)c4)CC3)n[nH]2)c(F)cn1 [Example 159, N-(3-chlorobenzyl)-1-(5-(5-fluoro-2-methoxypyridin-4-yl)-1H-pyrazole-3-carbonyl)piperidine-4-carboxamide]	27.1	62.4
COc1cc(-c2cc(C(=O)N3[C@@H]4CC[C@H]3C[C@H](C(=O)NCc3cccc(Cl)c3)C4)n[nH]2)c(F)cn1 [Example 160-A, (1R,3s,5S)—N-(3-chlorobenzyl)-8-(5-(5-fluoro-2-methoxypyridin-4-yl)-1H-pyrazole-3-carbonyl)-8-azabicyclo[3.2.1]octane-3-carboxamide]	11.5	38.2
COc1cc(-c2cc(C(=O)N3[C@@H]4CC[C@H]3C[C@@H](C(=O)NCc3cccc(Cl)c3)C4)n[nH]2)c(F)cn1 [Example 160-B, (1R,3r,5S)—N-(3-chlorobenzyl)-8-(5-(5-fluoro-2-methoxypyridin-4-yl)-1H-pyrazole-3-carbonyl)-8-azabicyclo[3.2.1]octane-3-carboxamide]	14200	> 10000
COc1cc(-c2cc(C(=O)N3CCC(C(=O)NC4(C(F)(F)F)CCCC4)CC3)n[nH]2)c(Cl)cn1 [Example 162, 1-(5-(5-chloro-2-methoxypyridin-4-yl)-1H-pyrazole-3-carbonyl)-N-(1-(trifluoromethyl)cyclopentyl)piperidine-4-carboxamide]	588	908
COc1cc(-c2nc(C(=O)N3CCC(C(=O)NCc4cccc(Cl)c4)CC3)n[nH]2)c(F)cn1 [Example 166, N-[(3-chlorophenyl)methyl]-1-[5-(5-fluoro-2-methoxypyridin-4-yl)-1H-1,2,4-triazole-3-carbonyl]piperidine-4-carboxamide]	300	> 10000
COc1cc(-c2cc(C(=O)N3CCC(C(=O)NCc4ccc5c(c4)CC(=O)N5)CC3)n[nH]2)c(Cl)cn1 [Example 167, 1-(5-(5-chloro-2-methoxypyridin-4-yl)-1H-pyrazole-3-carbonyl)-N-((2-oxoindolin-5-yl)methyl)piperidine-4-carboxamide]	112	4040
COc1cc(-c2cc(C(=O)N3[C@@H]4CC[C@H]3C[C@H](C(=O)N[C@H]3CC[C@](O)(C(F)(F)F)CC3)C4)n[nH]2)c(F)cn1 [Example 170-B, (1R,3s,5S)-8-(5-(5-fluoro-2-methoxypyridin-4-yl)-1H-pyrazole-3-carbonyl)-N-((1s,4S)-4-hydroxy-4-(trifluoromethyl)cyclohexyl)-8-azabicyclo[3.2.1]octane-3-carboxamide]	1110	3560
COc1cc(-c2cc(C(=O)N3CCC(O)(C(=O)NCc4cccc(Cl)c4)CC3)n[nH]2)c(Cl)cn1 [Example 171, 1-(5-(5-chloro-2-methoxypyridin-4-yl)-1H-pyrazole-3-carbonyl)-N-(3-chlorobenzyl)-4-hydroxypiperidine-4-carboxamide]	210	1550
COc1cc(-c2cc(C(=O)N3CCC(F)(C(=O)NCc4cccc(Cl)c4)CC3)n[nH]2)c(Cl)cn1 [Example 174, 1-(5-(5-chloro-2-methoxypyridin-4-yl)-1H-pyrazole-3-carbonyl)-N-(3-chlorobenzyl)-4-fluoropiperidine-4-carboxamide]	125	407
COc1cc(-c2cc(C(=O)N3CCC(C(=O)NCc4ccc(C)cn4)CC3)n[nH]2)c(Cl)cn1 [Example 176, 1-(5-(5-chloro-2-methoxypyridin-4-yl)-1H-pyrazole-3-carbonyl)-N-((5-methylpyridin-2-yl)methyl)piperidine-4-carboxamide]	376	1840
COc1cc(-c2cc(C(=O)N3CCC(C(=O)NCc4cncc(Cl)c4)CC3)n[nH]2)c(Cl)cn1 [Example 179, 1-(5-(5-chloro-2-methoxypyridin-4-yl)-1H-pyrazole-3-carbonyl)-N-((5-chloropyridin-3-yl)methyl)piperidine-4-carboxamide]	321	1530
COc1cc(-c2cc(C(=O)N3CCC(C(=O)NC4CC(=O)N(c5ccccc5)C4)CC3)n[nH]2)c(Cl)cn1 (centres unmarked) [Example 183, 1-(5-(5-chloro-2-methoxypyridin-4-yl)-1H-pyrazole-3-carbonyl)-N-(5-oxo-1-phenylpyrrolidin-3-yl)piperidine-4-carboxamide]	233	1650
COc1cc(-c2cc(C(=O)N3CCC(C(=O)NC4CCOc5ccccc54)CC3)n[nH]2)c(Cl)cn1 (centres unmarked) [Example 184, 1-(5-(5-chloro-2-methoxypyridin-4-yl)-1H-pyrazole-3-carbonyl)-N (chroman-4-yl)piperidine-4-carboxamide]	215	384
